In patent US20190084939A1, “ANALOGS OF FEXARAMINE AND METHODS OF MAKING AND USING” (Salk Institute for Biological Studies, priority 2014, published 2019):

Columns and labels:
human TGR5 = molecular target: T1, human TGR5 (Homo sapiens, UniProt Q8TDU6); assay: TGR5 activation, cAMP-response element luciferase in HEK293 cells; assay type: cell-based; details: 24 hours after transfection
T1 construct: expressed in transfected cells; host or cells: HEK293 cells
T1 sequence (Q8TDU6 1-330): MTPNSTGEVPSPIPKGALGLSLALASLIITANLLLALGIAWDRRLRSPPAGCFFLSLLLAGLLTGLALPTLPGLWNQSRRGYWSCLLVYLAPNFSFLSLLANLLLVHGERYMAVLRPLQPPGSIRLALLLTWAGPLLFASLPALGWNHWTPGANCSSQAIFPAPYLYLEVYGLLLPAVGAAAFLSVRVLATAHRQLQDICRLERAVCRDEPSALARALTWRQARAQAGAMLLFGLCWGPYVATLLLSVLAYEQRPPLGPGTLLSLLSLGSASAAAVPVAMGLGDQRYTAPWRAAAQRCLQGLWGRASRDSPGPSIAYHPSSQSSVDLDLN
Protocol: HEK293 cells were transfected with expression vectors for cAMP-response element luciferase, β-galactosidase and human TGR5. 24 hours after transfection, cells were treated with fexaramine or INT-777 (a TGR5 agonist).

[1] = system: serum bile acid composition; assay: serum bile acid composition by mass spectrometry in HFD mice; assay type: in vivo; details: 100 mg/kg/day per os 5 week
Protocol: Mice fed a HFD for 14 weeks were maintained on a HFD and treated with vehicle or fexaramine (100 mg/kg/day per os for 5 week). Serum bile acid composition was determined by mass spectrometry. N.D not determined.

[2] = system: pancreatic islets gene expression; assay: RNA-Seq of pancreatic islets of treated ob/ob mice; assay type: in vivo; details: fexaramine 100 mg/kg 5 weeks, analogs 50 mg/kg 2 weeks
Protocol: Pancreatic islets were isolated from ob/ob mice after daily treatment by oral gavage with fexaramine (100 mg/kg for 5 weeks), FEX-D (50 mg/kg for 2 weeks) or SALK110 (NSSK00110, 50 mg/kg for 2 weeks). Changes in gene expression were determined by RNA-Seq.

For `COC(=O)/C=C/c1cccc(N(Cc2ccc(-c3ccc(N(C)C)cc3)cc2)C(=O)C2CCCCC2)c1` [Fexaramine, fexaramine], the “activation of TGR5” value (human TGR5) was “fails to activate TGR5”, the “activation of TGR5” value (human TGR5; listed as Fex) was “does not activate” and the “Bile Acid Composition (%): CA” value [1] was 7.51%. For the same compound, the “Bile Acid Composition (%): CDCA” value [1] was 2.51%, the “Bile Acid Composition (%): DCA” value [1] was 7.67% and the “Bile Acid Composition (%): GLCA” value [1] was 0.51%. For the same compound, the “Bile Acid Composition (%): HDCA” value [1] was 0.36%, the “Bile Acid Composition (%): LCA” value [1] was 28.13% and the “Bile Acid Composition (%): T-UDCA” value [1] was 3.07%. For the same compound, the “Bile Acid Composition (%): T-beta MCA” value [1] was 29.16%, the “Bile Acid Composition (%): TCA” value [1] was 12.23% and the “Bile Acid Composition (%): TCDCA” value [1] was 1.13%. For the same compound, the “Bile Acid Composition (%): TDCA” value [1] was 1.02%, the “Bile Acid Composition (%): UDCA” value [1] was 0.05% and the “Bile Acid Composition (%): omega MCA” value [1] was 6.65%. The “gene induction in islets (intracellular signaling, insulin secretion, exocytosis)” value [2] was “induce a common set of genes”.
